The values below come from patent US20250340556A1, “PYRIMIDOPYRIMIDONE COMPOUNDS AND METHODS OF USE THEREOF” (Soltego, Inc., priority 2022, published 2025).

Structures are written as SMILES. Entries after “also recorded” stand apart in the source; their conditions may differ. Read-outs that look alike come from different tables or passages of the source.

For one series, the target named is SIK (h) / SIK1 (Homo sapiens (Human), UniProt P57059). The series is described as follows: SIK1 kinase activity, Eurofins KinaseProfiler ([γ-33P]-ATP filter assay). The series is classed as biochemical. The conditions noted are these: Table 6, macrocycles. The protocol:
(§1) SIK1, 2 and 3 kinase activity was assessed using a Eurofins Cerep S.A. (‘Eurofins’) KinaseProfiler. All compounds were prepared to 50× final assay concentration in 100% DMSO. This working stock of the compound was added to the assay well as the first component in the reaction, followed by the remaining components as detailed in the general assay protocols below. In the standard KinaseProfiler service, there is no pre-incubation step between the compound and the kinase prior to initiation of the reaction. The positive control well contains all components of the reaction, except the compound of interest; however, DMSO (at a final concentration of 2%) is included in these wells to control for solvent effects. The blank wells contain all components of the reaction, with a reference inhibitor replacing the compound of interest. This abolishes kinase activity and establishes the base-line (0% kinase activity remaining).
SIK (h) was incubated with 8 mM MOPS pH 7.0, 0.2 mM EDTA, 100 μM […], 10 mM Magnesium acetate and [γ-33P]-ATP (specific activity and concentration as required). The reaction was initiated by the addition of the Mg/ATP mix. After incubation for 40 minutes at room temperature, the reaction was stopped by the addition of phosphoric acid to a concentration of 0.5%, 10 μL of the reaction was then spotted onto a P30 filtermat and washed four times for 4 minutes in 0.425% phosphoric acid and once in methanol prior to drying and scintillation counting.

For series [1], the system named is living human skin explants. The series is described as follows: Cell viability of living human skin explants, Masson's trichrome staining (Example 8). Type of series: cell-based. The conditions noted are these: 1% topical in vehicle E. The protocol:
All the tested products were diluted in the vehicle noted as E (Ethanol 65%, Propylene glycol 25%, Transcutol 10%). The diluted solutions were stored at 4° C. within the study period. 36 human skin explants of an average diameter of 11 mm (+1 mm) were prepared on an abdoplasty coming from a person (reference: P2462-AB53) with a III phototype. The explants were kept in survival in BEM culture medium (BIO-EC's Explants Medium) at 37° C. in a humid, 5%-CO2 atmosphere. Study is performed on human skin tissue, obtained from surgical residues in full respect with the Declaration of Helsinki and the article L. 1243-4 of the French Public Health Code.
The excipient E and the tested products were applied topically at a rate of 2 μL per 1 cm^2 explant (˜2 mg/cm^2) and spread and gently rubbed for 10 seconds using a small spatula on day 0 (DO), D3, D5, D7 and D10. […] The culture medium was half renewed (1 ml per well) on D3, D5, D7 and D10. On D0, D3, D4, D5, D6, D7 and D10, the culture media of the irradiated explants (UV) were replaced by HBSS (Hank's Balanced Saline Solution; 1 ml per explant). Then, the explants of the “UV” batch were irradiated using a UV simulator Vibert Lourmat RMX 3W with a dose of 2.25 J/cm^2 of UVA (with 6-8% of UVB) corresponding to 0.5 MED (minimal erythemal dose) on a skin with a III phototype. At the end of the UV irradiation, the explants form the batch TUV were put back in 2 mL of BEM medium. On D0, the 3 explants from the batch TO were collected and cut in two parts. Half was fixed in buffered formalin solution and half was frozen at −80° C. On D10, 3 explants from the concerned batches were collected and treated in the same way than in DO. According to the dispositions mentioned in the study plan, the days of treatments, irradiations and sampling were adjusted to the schedule of working days. After fixation for 24 hours in buffered formalin, the samples were dehydrated and impregnated in paraffin using a Leica PEARL dehydration automat. The samples were embedded using a Leica EG 1160 embedding station. 5-μm-thick sections were made using a Leica RM 2125 Minot-type microtome, and the sections were mounted on Superfrost® histological glass slides. The frozen samples were cut into 7-μm-thick sections using a Leica CM 3050 cryostat. Sections were then mounted on Superfrost®, plus silanized glass slides. The microscopical observations were realized using a Leica DMLB or Olympus BX43 microscope. Pictures were digitized with a numeric DP72 Olympus camera with CellSens storing software.
The cell viability of the epidermal and dermal structures was assessed by microscopical observation of formalin-fixed paraffin-embedded (FFPE) skin sections after Masson's trichrome staining, Goldner variant.

The target in a further series is SIK1 (Homo sapiens (Human), UniProt P57059). The series is described as follows: cell-based.
Chain of SIK1 (P57059 whole entry): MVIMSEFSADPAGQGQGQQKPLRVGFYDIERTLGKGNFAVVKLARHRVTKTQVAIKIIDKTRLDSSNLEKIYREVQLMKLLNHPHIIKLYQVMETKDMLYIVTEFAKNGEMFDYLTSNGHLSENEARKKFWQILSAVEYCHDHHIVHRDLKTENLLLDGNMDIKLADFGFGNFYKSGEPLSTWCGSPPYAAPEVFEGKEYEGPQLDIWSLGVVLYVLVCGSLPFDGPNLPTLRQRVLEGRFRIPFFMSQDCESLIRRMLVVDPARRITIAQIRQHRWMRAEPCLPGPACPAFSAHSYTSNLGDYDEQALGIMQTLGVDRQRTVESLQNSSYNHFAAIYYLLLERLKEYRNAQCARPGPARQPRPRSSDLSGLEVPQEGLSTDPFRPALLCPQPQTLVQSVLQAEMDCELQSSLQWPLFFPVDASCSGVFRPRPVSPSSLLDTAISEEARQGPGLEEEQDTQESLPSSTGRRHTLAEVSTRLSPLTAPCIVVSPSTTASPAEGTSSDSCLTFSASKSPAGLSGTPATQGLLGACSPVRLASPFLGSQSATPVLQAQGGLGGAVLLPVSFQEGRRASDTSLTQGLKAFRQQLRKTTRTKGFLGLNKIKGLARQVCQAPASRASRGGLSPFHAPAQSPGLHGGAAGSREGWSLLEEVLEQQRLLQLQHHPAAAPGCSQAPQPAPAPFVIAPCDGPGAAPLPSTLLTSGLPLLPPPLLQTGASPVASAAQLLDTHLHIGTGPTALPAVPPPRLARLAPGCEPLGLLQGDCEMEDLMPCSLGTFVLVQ
For series [2] the following is noted: ester bond.
The next series has as its target SIK2 (h) (Homo sapiens (Human), UniProt Q9H0K1). The series is described as follows: SIK2 kinase activity, Eurofins KinaseProfiler ([γ-33P]-ATP filter assay). The settings on record: Table 6, macrocycles; read-out: IC50 nM SIK2. The series is classed as biochemical. The protocol: as §1
SIK2 (h) was incubated with 8 mM MOPS pH 7.0, 0.2 mM EDTA, 100 μM […], 10 mM Magnesium acetate and [γ-33P-ATP](specific activity and concentration as required). The reaction was initiated by the addition of the Mg/ATP mix. After incubation for 40 minutes at room temperature, the reaction was stopped by the addition of phosphoric acid to a concentration of 0.5%, 10 μL of the reaction was then spotted onto a P30 filtermat and washed four times for 4 minutes in 0.425% phosphoric acid and once in methanol prior to drying and scintillation counting.

The next series relates to B16 4A5 cells. The series is described as follows: B16 4A5 cell viability, MTS assay. Type of series: cell-based, mouse. The settings on record: 72 h, compared with DMSO 0.1% control; for viability of cells: 5 μg/mL. The protocol: B16 4A5 cells were seeded in 24-well plates at 20,000 cells/well, 24 h before the beginning of the treatment with test compounds at 5 concentrations, in triplicates (n=3). […] Additionally, DMSO at 0.1%, used for solubilization of the test compounds, was tested in parallel. The treatments were performed in culture medium containing only 1% of FBS. […] The effects of the compounds on B16 4A5 viability was assessed. To this purpose, cells were incubated during 72 h with 5 concentrations of the compounds, were left untreated, treated with SDS or with DMSO 0.1%.
For orientation: Tetrazolium dyes change colour on reduction, which living cells bring about.

In the next series the target is SIK3 (h) (Homo sapiens (Human), UniProt Q9Y2K2). The series is described as follows: SIK3 kinase activity, Eurofins KinaseProfiler ([γ-33P]-ATP filter assay). Type of series: biochemical. The settings on record: Table 6, macrocycles. As to the method:
as §1
SIK3 (h) was incubated with 8 mM MOPS pH 7.0, 0.2 mM EDTA, 100 μM […], 10 mM Magnesium acetate and [γ-33P-ATP](specific activity and concentration as required). The reaction was initiated by the addition of the Mg/ATP mix. After incubation for 40 minutes at room temperature, the reaction is stopped by the addition of phosphoric acid to a concentration of 0.5%, […] of the reaction was then spotted onto a P30 filtermat and washed four times for 4 minutes in 0.425% phosphoric acid and once in methanol prior to drying and scintillation counting.

The subject of series [3] is living human skin explants. The series is classed as cell-based.
Series [4] deals with living human skin explants. The series is described as follows: Pigmentation of living human skin explants ex vivo (Example 10). The series is classed as cell-based. The conditions noted are these: 15 mM and 21 mM, 5 μL/cm2 topically each day for 6 days. As to the method:
SLT-045 (3, 7, 15, 21 mM; 5 μL/cm2) in vehicle (44.9% DMSO/37.5% EtOH/17.4% propylene glycol) was applied topically applied using a Pasteur pipette, each day for 6 days using triplicate skin samples (8 mm punch).

Series [5] deals with living human skin explants. The series is described as follows: Melanin in living human skin explants, Fontana-Masson staining (Example 9). The conditions noted are these: for melanin content (staining, microscopical observation): Propylene glycol 30%; for surface occupied by melanin in the basal cell layer of the epidermis: vehicle E 7.9. The series is classed as cell-based. As to the method:
All the tested products were diluted in the vehicle (Ethanol 70%, Propylene glycol 30%). 24 human skin explants of an average diameter of […] were prepared on an abdoplasty coming from a person (reference: P2511-AB43) with a II phototype. The explants were kept in survival in BEM culture medium (BIO-EC's Explants Medium) at 37° C. in a humid, 5%-CO2 atmosphere. Products were applied topically at a rate of 2 μL per 1 cm^2 explant (2 mg/cm^2) and spread and gently rubbed for 10 seconds using a small spatula on day 0 (D0), D2, D5 and D7. […] The culture medium was half renewed (1 ml per well) on D2, D5 and D7. After fixation for 24 hours in buffered formalin, the samples were dehydrated and impregnated in paraffin using a Leica PEARL dehydration automat. The samples were embedded using a Leica EG 1160 embedding station. 5-μm-thick sections were made using a Leica RM 2125 Minot-type microtome, and the sections were mounted on Superfrost® histological glass slides. The frozen samples were cut into 7-μm-thick sections using a Leica CM 3050 cryostat. Sections were then mounted on Superfrost® plus silanized glass slides. The microscopical observations were realized using a Leica DMLB or Olympus BX43 microscope. Pictures were digitized with a numeric DP72 Olympus camera with CellSens storing software. Melanin was visualized after silver impregnation according to Masson's Fontana staining method on FFPE skin sections. The staining was assessed by microscopical observation (FIG. 5) and by image analysis (FIG. 6).

The term IC50 denotes the concentration needed to halve the response being measured. Usually EC50 stands for the concentration needed to bring the measured effect to its halfway point. Lower therefore signals greater potency. For `Cc1cccc(C)c1N1Cc2cnc3nc2N(CCC(=O)OCc2cc(ccc2N2CCN(C)CC2)N3)C1=O` [SLT-023], the IC50 on SIK (h) / SIK1 came to 3 nM; at SIK2 (h) it was 3 nM; against SIK3 (h) it was 18 nM. Moreover, the “cell viability of epidermal and dermal structures” value in series [1] is listed as “very slightly decreased”. This compound came in with an EC50 on SIK1 of 86.6 nM. The compound also came in with a ring closure, isolated yield in series [2] (from Cc1cccc(C)c1N1Cc2cnc(Nc3ccc(N4CCN(C)CC4)c(CO)c3)nc2N(CCC(=O)O)C1=O, 13-membered ring, EDC.HCl/HOBt/DMAP/3A MS, DCM, 8.04 mM, 25.0 °C, 16.0 h) of 33%. Besides, the cell viability entry with B16 4A5 cells (0.7 μg/mL) is “slightly decreased”. The viability of cells result with B16 4A5 cells is on record as “slightly diminished”.

As to `Cc1cccc(C)c1N1Cc2cnc3nc2N(CCCC(=O)OCc2cc(ccc2N2CCN(C)CC2)N3)C1=O` [SLT-026], the figures for the IC50 on SIK (h) / SIK1, on SIK2 (h) and against SIK3 (h) were 2 nM, 2 nM and 3 nM, respectively. For the same compound, the “cell viability of epidermal and dermal structures” value in [1] is “very slightly decreased”. At SIK1, this compound displayed an EC50 of 3.24 nM. In addition, the ring closure, isolated yield in [2] (from Cc1cccc(C)c1N1Cc2cnc(Nc3ccc(N4CCN(C)CC4)c(CO)c3)nc2N(CCCC(=O)O)C1=O, 14-membered ring, DCC/DMAP/3A MS, DCM/DMF, 5.37 mM, 25.0 °C, 16.0 h) was determined as 9%. Further, in [3], the “increase of melanin in the suprabasal layers” value was 50%.

In the case of `Cc1cccc(C)c1N1Cc2cnc3nc2N(CCCCOC(=O)c2cc(ccc2N2CCN(C)CC2)N3)C1=O` [SLT-042], the IC50 was found to be 2 nM at SIK (h) / SIK1, 0.7 nM at SIK2 (h) and 2 nM against SIK3 (h). The “cell viability of epidermal and dermal structures” value in series [1] is on record as “very slightly decreased”. The same compound registered an EC50 on SIK1 of 2.02 nM. For the same compound, the ring closure, isolated yield in [2] (from Cc1cccc(C)c1N1Cc2cnc(Nc3ccc(N4CCN(C)CC4)c(C(=O)O)c3)nc2N(CCCCO)C1=O, 14-membered ring, 2,4,6-trichlorobenzoyl chloride/TEA, DMAP, toluene/DMF, 5.0 mM, 110.0 °C, 16.0 h) was found to be 22%. For the same compound, in series [3], the “increase of melanin in the suprabasal layers” value stood at 25%.

On to `COC(=O)Cc1cc(Nc2ncc3c(n2)N(CCCO)C(=O)N(c2c(C)cccc2C)C3)ccc1N1CCN(C)CC1` [SLT-045], for which the visual skin pigmentation result in series [4] was “induced a visual skin pigmentation”.

Consider `Cc1cccc(C)c1N1Cc2cnc3nc2N(CCCOC(=O)Cc2cc(ccc2N2CCN(C)CC2)N3)C1=O` [SLT-048], for which the “cell viability of epidermal and dermal structures” value in [1] was “very slightly decreased”. The EC50 on SIK1 came out at 2.58 nM. Besides, the “change of surface occupied by melanin in the basal cell layer vs the vehicle” value in [5] (0.2% topical) is on record as “+24%”; in series [5] (2% topical), “+56%”. For the same compound, the “melanin content (staining, microscopical observation)” value in [5] (0.2% topical in Ethanol 70%) is “slight increase; also recorded: increased”; in [5] (2% topical in Ethanol 70%), “moderate increase; also recorded: highly increased”. Also, the “surface occupied by melanin in the basal cell layer of the epidermis” value was 10.0 in [5] (0.2% topical) and 12.6 in series [5] (2% topical). This compound also returned a ring closure, isolated yield in [2] (from Cc1cccc(C)c1N1Cc2cnc(Nc3ccc(N4CCN(C)CC4)c(CC(=O)O)c3)nc2N(CCCO)C1=O, 14-membered ring, DCC/DMAP/3A MS, DCM/DMF, 25.0 °C, 2.0 h) of 21%. Moreover, at SIK2 (h), the IC50 stood at 0.6 nM. The viability of cells entry in the series on B16 4A5 cells was “slightly diminished”.
